Earlier results in patent US6683169B2, “Nucleic acid encoding the human peptide histidine transporter 1 and methods of use thereof” (Rutgers, The State University of New Jersey, priority 2000, dated 2004).
Peptide text beside a SMILES is read from it.

Biological target: T1, rPHT1 (Rattus norvegicus, UniProt O09014)
T1 construct: host or cells: Xenopus oocytes
Conditions: rPHT1 in Xenopus oocytes; for inhibition of histidine transport: inhibition studies

T1 sequence (O09014 whole entry): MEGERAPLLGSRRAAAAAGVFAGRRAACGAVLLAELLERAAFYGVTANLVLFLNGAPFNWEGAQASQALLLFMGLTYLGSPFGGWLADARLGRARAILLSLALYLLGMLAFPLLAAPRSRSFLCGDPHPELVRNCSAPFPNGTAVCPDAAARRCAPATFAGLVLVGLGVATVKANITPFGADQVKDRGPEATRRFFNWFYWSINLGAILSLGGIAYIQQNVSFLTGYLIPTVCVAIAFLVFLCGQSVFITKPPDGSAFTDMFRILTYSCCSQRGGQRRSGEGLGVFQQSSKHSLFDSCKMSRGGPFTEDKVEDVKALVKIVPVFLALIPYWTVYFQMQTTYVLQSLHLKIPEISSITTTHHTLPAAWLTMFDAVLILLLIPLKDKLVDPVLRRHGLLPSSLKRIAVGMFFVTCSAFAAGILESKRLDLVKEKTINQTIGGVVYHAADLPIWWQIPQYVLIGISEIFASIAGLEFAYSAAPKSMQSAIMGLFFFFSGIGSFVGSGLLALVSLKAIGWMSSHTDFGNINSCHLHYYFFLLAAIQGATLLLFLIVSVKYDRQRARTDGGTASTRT

Row | carnosine uptake versus water-injected control oocytes ([3H]carnosine) | SMILES | inhibition of histidine transport
1 |  | NCC(=O)NCC(=O)O [Gly-Gly] (H-Gly-Gly-OH) | inhibited
2 | significantly higher | NCCC(=O)N[C@@H](Cc1cnc[nH]1)C(=O)O [carnosine] | inhibited
3 |  | NCC(=O)NCC(=O)NCC(=O)O [Gly-Gly-Gly] (H-Gly-Gly-Gly-OH) | inhibited
4 |  | CC(C)C[C@H](NC(=O)CN)C(=O)O [Gly-Leu] | inhibited
